Where “and” joins values, the source holds several entries; their conditions need not be identical. Identical values can stand only once.
Key:
[1] = target: Glycogen synthase kinase-3 alpha (Homo sapiens, UniProt P49840); test: TR-FRET Assay
Description: (§1) The assay was performed in a white, 384 well, low volume, flat bottom plate (Grenier). […] The kinase activity was quenched with 2 μL of 250 mM EDTA. A 10 μL volume of 40 nM Strepavidin-d2, 2 nM Tb2+-pSer641 antibody in TR-FRET Detection Buffer (Invitrogen) was then added.

[2] = target: Glycogen synthase kinase-3 beta (Homo sapiens, UniProt P49841); test: TR-FRET Assay
Description: as §1

Sequence of Glycogen synthase kinase-3 alpha (P49840 whole entry): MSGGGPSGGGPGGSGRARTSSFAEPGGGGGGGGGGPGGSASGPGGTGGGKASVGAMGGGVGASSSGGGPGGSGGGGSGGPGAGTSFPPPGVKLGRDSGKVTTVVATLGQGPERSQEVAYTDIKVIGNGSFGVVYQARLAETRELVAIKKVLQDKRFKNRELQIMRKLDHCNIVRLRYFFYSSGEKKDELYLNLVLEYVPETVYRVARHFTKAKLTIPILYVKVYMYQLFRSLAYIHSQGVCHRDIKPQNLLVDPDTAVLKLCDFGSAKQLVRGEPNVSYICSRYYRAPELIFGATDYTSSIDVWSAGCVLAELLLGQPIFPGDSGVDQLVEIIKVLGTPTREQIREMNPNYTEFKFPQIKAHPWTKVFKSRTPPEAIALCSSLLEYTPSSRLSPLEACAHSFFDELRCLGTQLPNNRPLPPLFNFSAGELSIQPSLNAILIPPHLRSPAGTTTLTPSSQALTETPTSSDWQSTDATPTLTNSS
Sequence of Glycogen synthase kinase-3 beta (P49841 whole entry): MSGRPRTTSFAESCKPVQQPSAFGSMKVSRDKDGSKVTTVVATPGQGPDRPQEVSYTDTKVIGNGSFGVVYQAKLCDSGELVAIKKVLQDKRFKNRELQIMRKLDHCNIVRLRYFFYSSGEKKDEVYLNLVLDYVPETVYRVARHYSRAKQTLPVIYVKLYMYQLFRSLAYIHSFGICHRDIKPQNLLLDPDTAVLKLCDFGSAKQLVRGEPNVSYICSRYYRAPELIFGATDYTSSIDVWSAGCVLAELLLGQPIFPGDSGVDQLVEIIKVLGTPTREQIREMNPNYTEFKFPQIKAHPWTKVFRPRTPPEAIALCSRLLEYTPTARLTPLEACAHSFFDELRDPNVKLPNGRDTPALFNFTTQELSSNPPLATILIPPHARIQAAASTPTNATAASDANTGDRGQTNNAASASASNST

IC50 [1] | IC50 [2] | Compound
> 5000 nM | > 5000 nM | CC[C@]1(c2cccc(-c3ccnc(C(F)F)c3)c2)C2=CN=NC2NC2=C1C(=O)CC(C)(C)C2 (stereo not given in full) [US20250313563, Compound 943915]
< 100 nM and 100 to 1000 nM | < 100 nM and 1000 to 5000 nM | CC[C@]1(c2cccc(N(C)c3nccc(OC)n3)c2)C2=CN=NC2NC2=C1C(=O)CC(C)(C)C2 (stereo not given in full) [US20250313563, Compound 947336]
< 100 nM | < 100 nM | CCC1(c2cccc(Br)c2)C2=C(CC(C)(C)CC2=O)NC2N=NC(C(F)(F)F)=C21 (stereo not given) [US20250313563, Compound 801324]
> 5000 nM | > 5000 nM | CC1(C)CC(=O)C2=C(C1)NC1=C(CN=N1)C21CN(CC2CCOCC2)C1 [US20250313563, Compound 943545]
100 to 1000 nM | 100 to 1000 nM | O=C1CC2(CSC2)CC2=C1C1(CCCC1)C1=CN=NC1N2 (stereo not given) [US20250313563, Compound 913441]
100 to 1000 nM | 100 to 1000 nM | CC[C@]1(c2ccccc2)C2=CN=NC2NC2=C1C(=O)C[C@H](C)C2 (stereo not given in full) [US20250313563, Compound 789010]
> 1670 nM | > 5000 nM | CC1(C)CC(=O)C2=C(C1)NC1N=NC=C1[C@@]21CCc2c(F)cccc21 (stereo not given in full) [US20250313563, Compound 806632]
< 100 nM and 100 to 1000 nM | < 100 nM and 100 to 1000 nM | CC1(C)CC(=O)C2=C(C1)NC1=C(CN=N1)C21CN(S(=O)(=O)C2CCCC2)C1 [US20250313563, Compound 917139]
1000 to 5000 nM | > 5000 nM | CC[C@@]1(c2cccc(C(C)C)c2)C2=CN=NC2NC2=C1C(=O)CC(C)(C)C2 (stereo not given in full) [US20250313563, Compound 810375]
> 5000 nM | > 5000 nM | CC[C@@]1(c2cccc(C3CN(C(C)=O)C3)c2)C2=CN=NC2NC2=C1C(=O)CC(C)(C)C2 (stereo not given in full) [US20250313563, Compound 949132]
< 100 nM | 100 to 1000 nM | CC[C@@]1(c2cccc(-c3cnn4c3OCCC4)c2)C2=CN=NC2NC2=C1C(=O)NC(C)(C)C2 (stereo not given in full) [US20250313563, Compound 952019]
100 to 1000 nM | 100 to 1000 nM | CC[C@@]1(c2cccc(-c3ccnc(C)c3)c2)C2=CN=NC2NC2=C1C(=O)CC(C)(C)[C@H]2F (stereo not given in full) [US20250313563, Compound 946104]
< 100 nM and 100 to 1000 nM | < 100 nM and 1000 to 5000 nM | CC[C@]1(c2cccc(S(=O)(=O)CCOC)c2)C2=CN=NC2NC2=C1C(=O)CC(C)(C)C2 (stereo not given in full) [US20250313563, Compound 943542]
1000 to 5000 nM | – | CC[C@@]1(c2cccc(C(F)(F)C(F)(F)F)c2)C2=CN=NC2NC2=C1C(=O)CC(C)(C)C2 (stereo not given in full) [US20250313563, Compound 949268]
1000 to 5000 nM | – | CC[C@@]1(c2cccc(Nc3ncccn3)c2)C2=CN=NC2NC2=C1C(=O)CC(C)(C)C2 (stereo not given in full) [US20250313563, Compound 945958]
100 to 1000 nM | – | CC[C@@]1(c2cccc(-c3ccnn3C)c2)C2=CN=NC2NC2=C1C(=O)CC(C)(C)[C@@H]2F (stereo not given in full) [US20250313563, Compound 957509]
100 to 1000 nM | – | CC[C@]1(c2cccc(-c3ccncc3C)c2)C2=CN=NC2NC2=C1C(=O)NC1(CCOCC1)C2 (stereo not given in full) [US20250313563, Compound 948367]
100 to 1000 nM | – | CC[C@@]1(c2cccc([C@H]3CCOC(C)(C)C3)c2)C2=CN=NC2NC2=C1C(=O)CC(C)(C)C2 (stereo not given in full) [US20250313563, Compound 912090]
100 to 1000 nM | – | CC[C@@]1(c2cccc(Br)c2)C2=CN=NC2NC2=C1C(=O)CC(C)(C)C2 (stereo not given in full) [US20250313563, Compound 790734]

IC50 [1] | IC50 [2] | Compound
100 to 1000 nM | – | CC[C@]1(c2cccc(-c3ccnn3C)c2)C2=CN=NC2NC2=C1C(=O)NC1(CCC1)C2 (stereo not given in full) [US20250313563, Compound 948522]
1000 to 5000 nM | – | CC[C@]1(c2cccc(-c3cnn(CCOC)c3)c2)C2=CN=NC2NC2=C1C(=O)NC(C)(C)C2 (stereo not given in full) [US20250313563, Compound 949114]
1000 to 5000 nM | – | CC[C@@]1(c2cccc(-c3cn(C)nc3C)c2)C2=C(CC(C)(C)CC2=O)NC2N=NC(C)=C21 (stereo not given in full) [US20250313563, Compound 913034]
1000 to 5000 nM | – | CC[C@]1(c2cccc(-c3c(F)cncc3F)c2)C2=CN=NC2NC2=C1C(=O)NC(C)(C)C2 (stereo not given in full) [US20250313563, Compound 948514]
1000 to 5000 nM | – | CC[C@]1(c2cccc(S(=O)(=O)C3CCCCC3)c2)C2=CN=NC2NC2=C1C(=O)CC(C)(C)C2 (stereo not given in full) [US20250313563, Compound 943547]
100 to 1000 nM | – | CC[C@]1(c2cccc(-c3ccnn3CCC(C)C)c2)C2=CN=NC2NC2=C1C(=O)CC(C)(C)C2 (stereo not given in full) [US20250313563, Compound 946096]
100 to 1000 nM | – | CC[C@]1(c2cccc([C@H]3CCOC(C)(C)C3)c2)C2=CN=NC2NC2=C1C(=O)CC(C)(C)C2 (stereo not given in full) [US20250313563, Compound 912088]
1000 to 5000 nM | – | CC[C@]1(c2cccc(-c3ccncc3)c2)C2=CN=NC2NC2=C1C(=O)CC(C)(C)[C@H]2F (stereo not given in full) [US20250313563, Compound 959342]
1000 to 5000 nM | – | CC[C@@]1(c2cccc(N3C[C@@H](C)[C@@H](C)C3)c2)C2=CN=NC2NC2=C1C(=O)CC(C)(C)C2 (stereo not given in full) [US20250313563, Compound 918327]
100 to 1000 nM | – | CCn1nccc1-c1cccc([C@@]2(CC)C3=CN=NC3NC3=C2C(=O)CC(C)(C)C3)c1 (stereo not given in full) [US20250313563, Compound 946090]
1000 to 5000 nM | – | CCc1cccc(N(C)c2cccc([C@]3(CC)C4=CN=NC4NC4=C3C(=O)CC(C)(C)C4)c2)n1 (stereo not given in full) [US20250313563, Compound 945726]
1000 to 5000 nM | – | CC[C@]1(c2cccc(-c3cnn(C)c3C(F)(F)F)c2)C2=CN=NC2NC2=C1C(=O)NC(C)(C)C2 (stereo not given in full) [US20250313563, Compound 948826]
100 to 1000 nM | – | CC[C@@]1(c2cccc(C(F)(F)F)c2)C2=CN=NC2NC2=C1C(=O)C[C@@]1(CCNC1=O)C2 (stereo not given in full) [US20250313563, Compound 950331]
1000 to 5000 nM | – | CC[C@@]1(c2cccc(-c3ccncc3)c2)C2=CN=NC2NC2=C1C(=O)C[C@@H](C)C2 (stereo not given in full) [US20250313563, Compound 874315]
1000 to 5000 nM | – | CC[C@@]1(c2cccc(-c3cnn(C)c3)c2)C2=CN=NC2NC2=C1C(=O)CC(C)(C)[C@H]2F (stereo not given in full) [US20250313563, Compound 957510]
100 to 1000 nM | – | CC[C@]1(c2cccc(Oc3ncccn3)c2)C2=CN=NC2NC2=C1C(=O)CC(C)(C)C2 (stereo not given in full) [US20250313563, Compound 947818]
100 to 1000 nM | – | CC[C@]1(c2cccc(S(=O)(=O)C3CC3)c2)C2=CN=NC2NC2=C1C(=O)NC(C)(C)C2 (stereo not given in full) [US20250313563, Compound 946004]
100 to 1000 nM | – | CC[C@@]1(c2cccc(C(F)F)c2)C2=CN=NC2NC2=C1C(=O)CC(C)(C)C2 (stereo not given in full) [US20250313563, Compound 826716]
1000 to 5000 nM | – | CC[C@]1(c2cccc(-c3ccnc(C)c3)c2)C2=CN=NC2NC2=C1C(=O)NC1(CCOCC1)C2 (stereo not given in full) [US20250313563, Compound 948524]

IC50 [1] | IC50 [2] | Compound
100 to 1000 nM | – | CC[C@]1(c2cccc(-c3ccncc3C)c2)C2=CN=NC2NC2=C1C(=O)NC(C)(COC)C2 (stereo not given in full) [US20250313563, Compound 948127]
100 to 1000 nM | – | CC[C@]1(c2cccc(-c3ccnc(C)c3)c2)C2=C(CC(C)(C)CC2=O)NC2N=NC(C)=C21 (stereo not given in full) [US20250313563, Compound 913051]
3010 nM and 17500 nM | – | CC(=O)N1CC2(C1)C1=C(CC(C)(C)CC1=O)NC1N=NC(CC(C)(C)C)=C12 (stereo not given) [US20250313563, Compound 90991]
1000 to 5000 nM | – | CC[C@]1(c2cccc(-c3ccnn3C)c2)C2=CN=NC2NC2=C1C(=O)N[C@@]1(CCCOC1)C2 (stereo not given in full) [US20250313563, Compound 948366]
100 to 1000 nM | – | CC[C@@]1(c2cccc(-n3ccnc3)c2)C2=CN=NC2NC2=C1C(=O)CC(C)(C)C2 (stereo not given in full) [US20250313563, Compound 874533]
100 to 1000 nM | – | CC[C@@]1(c2cccc(C(F)(F)F)c2)C2=CN=NC2NC2=C1C(=O)N(c1cncnc1)CC2 (stereo not given in full) [US20250313563, Compound 948380]
1000 to 5000 nM | – | CC[C@]1(c2cccc(-c3cc(C)ncc3F)c2)C2=CN=NC2NC2=C1C(=O)CC(C)(C)C2 (stereo not given in full) [US20250313563, Compound 927339]
1000 to 5000 nM | – | CC[C@]1(c2cccc(-c3ccnc(C)c3)c2)C2=CN=NC2NC2=C1C(=O)C[C@]1(CCOC1)C2 (stereo not given in full) [US20250313563, Compound 947412]
100 to 1000 nM | – | CC[C@@]1(c2cccc(N(C)c3ccncc3)c2)C2=CN=NC2NC2=C1C(=O)CC(C)(C)C2 (stereo not given in full) [US20250313563, Compound 874261]
100 to 1000 nM | – | CC[C@@]1(c2cccc(N3CCCC3)c2)C2=C(CC(C)(C)CC2=O)NC2N=NC(C(F)(F)F)=C21 (stereo not given in full) [US20250313563, Compound 819575]
1000 to 5000 nM | – | CC[C@@]1(c2cccc(-c3ccnc(C)c3)c2)C2=CN=NC2NC2=C1C(=O)CC(C)(C)C2 (stereo not given in full) [US20250313563, Compound 865170]
1000 to 5000 nM | – | CC[C@@]1(c2cccc(N(C)c3ncccn3)c2)C2=C(N=NC2)NC2=C1C(=O)C(C)(C)C2 [US20250313563, Compound 952205]
1000 to 5000 nM | – | CC[C@@]1(c2cccc(C(F)(F)F)c2)C2=CN=NC2NC2=C1C(=O)N[C@H](c1ccccc1)C2 (stereo not given in full) [US20250313563, Compound 945363]
1000 to 5000 nM | – | CC[C@]1(c2cccc(-c3ccnc(C)c3)c2)C2=CN=NC2NC2=C1C(=O)CC(C)(C)[C@@H]2F (stereo not given in full) [US20250313563, Compound 946101]
100 to 1000 nM | – | CC[C@@]1(c2cccc(-c3cnn4c3CCCC4)c2)C2=CN=NC2NC2=C1C(=O)CC(C)(C)C2 (stereo not given in full) [US20250313563, Compound 945544]
1000 to 5000 nM | – | CCc1cccc([C@]2(CC)C3=CN=NC3NC3=C2C(=O)CC(C)(C)C3)c1 (stereo not given in full) [US20250313563, Compound 949391]
1000 to 5000 nM | – | CC[C@]1(c2cccc(-c3ccnc(C)c3)c2)C2=C(CC(C)(C)NC2=O)NC2N=NC(C(F)(F)F)=C21 (stereo not given in full) [US20250313563, Compound 948773]
1000 to 5000 nM | – | CC[C@]1(c2cccc(-c3cnn4c3CCCC4)c2)C2=CN=NC2NC2=C1C(=O)NC(C)(C)C2 (stereo not given in full) [US20250313563, Compound 947415]
< 100 nM and 100 to 1000 nM | – | CC[C@@]1(c2cccc(-c3c(C)cnn3C)c2)C2=CN=NC2NC2=C1C(=O)NC(C)(C)C2 (stereo not given in full) [US20250313563, Compound 952021]

From BindingDB's records for patent US20250313563 (The Broad Institute, 2025)
